Source: article PMC9149975, “The diaryl-imidazopyridazine anti-plasmodial compound, MMV652103, exhibits anti-breast cancer activity” (EXCLI Journal, 2022)
Where two headings read alike, the source gives them in different places.

Legend:
T47D cells [1] = experiment: Scratch motility assay, T47D; type: cell-based, human; details: IC50 and 2 x IC50; 3, 6, 9 h
Protocol: Cells were grown to 100 % confluence in 12-well tissue culture plates and the following day a sterile 2 µl pipette tip was used to make a vertical scratch in the cell monolayer of each well and the cells treated with mitomycin C (M4287; Sigma Aldrich) at a final concentration of 10 μg/ml to inhibit proliferation. Cells were subsequently treated with MMV652103 or vehicle and imaged at 0, 3, 6 and 9 h post wound formation and ImageJ v1.50i software was used to calculate the area of the scratch (Schneider et al., 2012[73]). The total areas migrated was determined by subtracting the area for a specific time point from the area measured at 0 h.

T47D cells [2] = experiment: Clonogenic survival assay, T47D; type: cell-based, human; details: IC50, 2 x IC50, 4 x IC50 for 24 h
Protocol: Cells were pre-cultured and treated with the indicated concentrations of MMV652103 for 24 h, washed, collected and re-plated, in drug-free medium, at 1000-2000 cells per well in 35 mm dishes, in triplicate. After 10-21 days the surviving cells were fixed with 3:1 methanol: acetic acid and stained with 0.5 % crystal violet (Sigma-Aldrich, USA) in 100 % methanol. Quantification of colonies was performed using ImageJ 1.5J8 software (USA) (Schneider et al., 2012[73]). Number of colonies was determined for each drug concentration and expressed as a percentage of the vehicle treated control.

MCF7 cells [3] = experiment: Cell cycle analysis by flow cytometry; type: cell-based, human; details: IC50, 24 and 48 h
Protocol: Log-phase MCF7 cells were exposed to MMV652103 for 24 and 48 h and both adherent and floating cells were collected, processed as previously described and analyzed using a Becton Dickinson FACSCalibur flow cytometer (Becton Dickinson, New Jersey, USA) with a 488 nm coherent laser (Bleloch et al., 2019[8]). The data were acquired using CellQuest Pro version 5.2.1. software (Becton Dickinson) and the analyses were done using ModFit version 2.0. software (Verity Software House Inc, Maine, USA).

chick embryos = experiment: Chick embryo CAM model: toxicity to the embryo; type: in vivo; details: 4.4 μM and 22 μM
Description: At stage E9, the chorioallantoic membrane (CAM) was dropped by drilling a small hole through the eggshell into the air sac and a 1 cm^2 window was cut in the eggshell above the CAM. Cultured MCF7 cells were detached with trypsin, washed with complete medium and suspended in PBS. […] At E18 the upper portion of the CAM was removed, transferred to PBS and the tumors cut away from normal CAM tissue and weighed. A one-way ANOVA analysis with post-tests was done. In parallel, a 1 cm^2 portion of the lower CAM was collected to evaluate the number of metastatic cells. The relative amount of metastasis was calculated as follows: Tumor cells were grafted onto the upper chorioallantoic membrane (CAM) and during metastasis the cells invade the epithelium and basement membrane of the upper CAM and move through connective tissue into the vasculature into the lower CAM. The cells in the lower CAM are then harvested and genomic DNA is extracted and analyzed by qPCR with specific primers for Alu sequences which are only found in higher primates i.e. it allows for the distinction between human tumor cells and the host chick cells. Statistical analysis was directly performed on data from the Bio-Rad CFX Manager 3.1 software.

PIK3CB/ PIK3R1 = target: T1, PIK3CB/ PIK3R1 (Homo sapiens, UniProt P42338); experiment: ADP-Glo lipid kinase assay, PIK3CB/PIK3R1; type: biochemical; details: 10 µM compound
T1 construct: purchased Carna Biosciences Inc; Invitrogen Corporation
T1 sequence (P42338 whole entry): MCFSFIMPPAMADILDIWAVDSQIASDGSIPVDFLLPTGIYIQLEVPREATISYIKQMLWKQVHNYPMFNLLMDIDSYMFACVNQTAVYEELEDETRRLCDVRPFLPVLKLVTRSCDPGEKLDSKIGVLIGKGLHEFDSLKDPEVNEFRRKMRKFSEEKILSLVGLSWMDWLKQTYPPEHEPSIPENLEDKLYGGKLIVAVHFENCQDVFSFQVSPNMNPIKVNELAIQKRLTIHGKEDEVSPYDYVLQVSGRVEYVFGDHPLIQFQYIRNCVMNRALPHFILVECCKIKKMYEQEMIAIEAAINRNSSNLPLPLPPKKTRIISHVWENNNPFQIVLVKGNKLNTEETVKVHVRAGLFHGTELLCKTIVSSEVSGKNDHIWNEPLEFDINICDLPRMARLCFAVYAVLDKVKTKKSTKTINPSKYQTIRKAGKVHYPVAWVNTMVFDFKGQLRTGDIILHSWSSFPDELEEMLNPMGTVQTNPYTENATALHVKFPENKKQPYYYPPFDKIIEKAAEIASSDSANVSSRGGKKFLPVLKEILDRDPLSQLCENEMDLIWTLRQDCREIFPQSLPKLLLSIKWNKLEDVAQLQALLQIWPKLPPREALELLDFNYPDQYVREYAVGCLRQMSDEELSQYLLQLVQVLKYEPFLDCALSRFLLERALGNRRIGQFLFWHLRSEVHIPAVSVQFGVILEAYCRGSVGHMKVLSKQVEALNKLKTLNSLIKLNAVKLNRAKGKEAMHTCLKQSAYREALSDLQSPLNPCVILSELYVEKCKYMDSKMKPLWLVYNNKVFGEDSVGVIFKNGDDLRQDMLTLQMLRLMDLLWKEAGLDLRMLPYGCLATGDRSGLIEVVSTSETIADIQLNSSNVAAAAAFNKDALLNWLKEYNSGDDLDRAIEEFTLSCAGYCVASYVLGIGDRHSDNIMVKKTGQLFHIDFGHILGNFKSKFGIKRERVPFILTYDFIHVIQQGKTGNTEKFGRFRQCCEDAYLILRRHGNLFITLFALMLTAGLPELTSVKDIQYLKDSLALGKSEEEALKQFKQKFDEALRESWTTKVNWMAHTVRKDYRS
T1 sequence (P27986 whole entry partner): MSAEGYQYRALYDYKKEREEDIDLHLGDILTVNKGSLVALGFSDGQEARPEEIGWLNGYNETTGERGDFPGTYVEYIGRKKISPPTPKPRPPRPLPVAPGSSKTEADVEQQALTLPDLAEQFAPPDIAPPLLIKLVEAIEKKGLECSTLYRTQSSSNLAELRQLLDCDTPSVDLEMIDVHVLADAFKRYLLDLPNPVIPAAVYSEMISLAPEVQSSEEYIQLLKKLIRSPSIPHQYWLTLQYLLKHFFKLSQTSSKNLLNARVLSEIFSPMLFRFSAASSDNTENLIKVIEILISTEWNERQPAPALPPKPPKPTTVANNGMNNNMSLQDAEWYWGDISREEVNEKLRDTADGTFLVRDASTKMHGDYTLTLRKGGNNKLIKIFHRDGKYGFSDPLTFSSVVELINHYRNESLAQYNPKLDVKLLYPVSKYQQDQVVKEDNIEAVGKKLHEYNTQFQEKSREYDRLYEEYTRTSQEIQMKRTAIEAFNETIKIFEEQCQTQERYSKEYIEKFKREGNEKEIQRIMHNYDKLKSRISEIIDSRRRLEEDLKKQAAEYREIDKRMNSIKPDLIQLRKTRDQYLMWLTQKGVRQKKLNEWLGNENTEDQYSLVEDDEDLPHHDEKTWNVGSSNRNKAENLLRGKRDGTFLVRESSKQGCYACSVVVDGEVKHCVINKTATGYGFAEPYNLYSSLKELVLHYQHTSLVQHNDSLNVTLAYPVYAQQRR

PIK3C2A = target: T2, PIK3C2A (Homo sapiens, UniProt O00443); experiment: ADP-Glo lipid kinase assay, PIK3C2A; type: biochemical; details: 10 µM compound
T2 construct: purchased Carna Biosciences Inc; Invitrogen Corporation

[4] = test system: FG0 human skin fibroblasts; experiment: MTT cytotoxicity assay, FG0; type: cell-based; details: Skin fibroblast
Protocol: Human estrogen-receptor positive (ER+) breast adenocarcinoma cell lines, MCF7 and T47D, were maintained in Roswell Park Memorial Institute-1640 medium (Sigma Aldrich, Missouri, USA) and the human epidermal growth factor receptor 2 positive (HER2+) BT474, and triple negative (TNBC) MDA-MB-231 and MDA-MB-468 cells were maintained in Dulbecco's Modified Eagle's Medium (DMEM) (Sigma Aldrich, Missouri, USA). […]
Cells (3.5×10^3-6×10^3 / well) were seeded in 96-well plates and treated at a 60-70 % confluence with a range of concentrations (0-10 μM) of test compounds or vehicle for 48 h. Cell viability was measured using the 3-(4,5-dimethylthiazol-2-yl)-2,5-diphenyl-trazolium bromide (MTT) assay (11465007001; Sigma Aldrich) according to the manufacturer's instructions. Mean cell viability was calculated as a percentage of the mean vehicle control. A minimum of three independent experiments in quadruplicate were performed from which the IC50 was determined from sigmoidal plots using GraphPad Prism version 6.0 (GraphPad Software, California, USA). The selectivity index (SI) was determined by dividing the IC50 of a non-malignant cell line by the IC50 of a cancer cell line.

PIK3CG = target: T3, PIK3CG (Homo sapiens, UniProt P48736); experiment: ADP-Glo lipid kinase assay, PIK3CG; type: biochemical; details: 10 µM compound
T3 construct: purchased Carna Biosciences Inc; Invitrogen Corporation
T3 sequence (P48736 whole entry): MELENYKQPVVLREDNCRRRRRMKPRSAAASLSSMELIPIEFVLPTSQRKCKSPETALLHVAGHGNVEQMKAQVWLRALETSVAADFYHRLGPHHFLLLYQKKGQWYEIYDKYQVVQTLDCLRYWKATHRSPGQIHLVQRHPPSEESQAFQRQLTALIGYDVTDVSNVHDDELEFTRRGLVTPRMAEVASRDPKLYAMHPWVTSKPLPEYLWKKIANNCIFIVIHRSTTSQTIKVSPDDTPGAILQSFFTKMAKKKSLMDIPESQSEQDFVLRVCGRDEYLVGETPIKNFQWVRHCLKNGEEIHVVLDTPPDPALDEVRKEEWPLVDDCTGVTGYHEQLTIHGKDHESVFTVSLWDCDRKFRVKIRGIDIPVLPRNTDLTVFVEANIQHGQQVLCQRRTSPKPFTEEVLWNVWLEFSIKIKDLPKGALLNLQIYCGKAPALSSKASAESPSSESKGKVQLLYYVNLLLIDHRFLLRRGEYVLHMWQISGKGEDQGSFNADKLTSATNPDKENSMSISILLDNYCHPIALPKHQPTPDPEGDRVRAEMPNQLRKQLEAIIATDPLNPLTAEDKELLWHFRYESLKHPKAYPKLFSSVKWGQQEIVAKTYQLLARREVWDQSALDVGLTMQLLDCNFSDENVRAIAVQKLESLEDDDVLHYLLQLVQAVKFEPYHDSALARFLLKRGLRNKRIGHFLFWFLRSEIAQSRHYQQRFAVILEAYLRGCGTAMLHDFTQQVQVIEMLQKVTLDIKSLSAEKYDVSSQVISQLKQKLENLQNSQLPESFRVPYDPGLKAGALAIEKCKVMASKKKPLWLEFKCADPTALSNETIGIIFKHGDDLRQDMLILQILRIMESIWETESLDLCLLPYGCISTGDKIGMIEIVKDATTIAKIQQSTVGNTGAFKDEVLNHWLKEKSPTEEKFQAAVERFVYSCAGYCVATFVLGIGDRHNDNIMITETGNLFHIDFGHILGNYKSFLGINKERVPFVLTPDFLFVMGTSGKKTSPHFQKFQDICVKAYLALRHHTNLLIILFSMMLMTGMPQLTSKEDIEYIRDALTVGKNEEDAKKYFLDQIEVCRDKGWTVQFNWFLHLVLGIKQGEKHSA

PIK3C2B = target: T4, PIK3C2B (Homo sapiens, UniProt O00750); experiment: ADP-Glo lipid kinase assay, PIK3C2B; type: biochemical; details: 10 µM compound
T4 construct: purchased Carna Biosciences Inc; Invitrogen Corporation
T4 sequence (O00750 whole entry): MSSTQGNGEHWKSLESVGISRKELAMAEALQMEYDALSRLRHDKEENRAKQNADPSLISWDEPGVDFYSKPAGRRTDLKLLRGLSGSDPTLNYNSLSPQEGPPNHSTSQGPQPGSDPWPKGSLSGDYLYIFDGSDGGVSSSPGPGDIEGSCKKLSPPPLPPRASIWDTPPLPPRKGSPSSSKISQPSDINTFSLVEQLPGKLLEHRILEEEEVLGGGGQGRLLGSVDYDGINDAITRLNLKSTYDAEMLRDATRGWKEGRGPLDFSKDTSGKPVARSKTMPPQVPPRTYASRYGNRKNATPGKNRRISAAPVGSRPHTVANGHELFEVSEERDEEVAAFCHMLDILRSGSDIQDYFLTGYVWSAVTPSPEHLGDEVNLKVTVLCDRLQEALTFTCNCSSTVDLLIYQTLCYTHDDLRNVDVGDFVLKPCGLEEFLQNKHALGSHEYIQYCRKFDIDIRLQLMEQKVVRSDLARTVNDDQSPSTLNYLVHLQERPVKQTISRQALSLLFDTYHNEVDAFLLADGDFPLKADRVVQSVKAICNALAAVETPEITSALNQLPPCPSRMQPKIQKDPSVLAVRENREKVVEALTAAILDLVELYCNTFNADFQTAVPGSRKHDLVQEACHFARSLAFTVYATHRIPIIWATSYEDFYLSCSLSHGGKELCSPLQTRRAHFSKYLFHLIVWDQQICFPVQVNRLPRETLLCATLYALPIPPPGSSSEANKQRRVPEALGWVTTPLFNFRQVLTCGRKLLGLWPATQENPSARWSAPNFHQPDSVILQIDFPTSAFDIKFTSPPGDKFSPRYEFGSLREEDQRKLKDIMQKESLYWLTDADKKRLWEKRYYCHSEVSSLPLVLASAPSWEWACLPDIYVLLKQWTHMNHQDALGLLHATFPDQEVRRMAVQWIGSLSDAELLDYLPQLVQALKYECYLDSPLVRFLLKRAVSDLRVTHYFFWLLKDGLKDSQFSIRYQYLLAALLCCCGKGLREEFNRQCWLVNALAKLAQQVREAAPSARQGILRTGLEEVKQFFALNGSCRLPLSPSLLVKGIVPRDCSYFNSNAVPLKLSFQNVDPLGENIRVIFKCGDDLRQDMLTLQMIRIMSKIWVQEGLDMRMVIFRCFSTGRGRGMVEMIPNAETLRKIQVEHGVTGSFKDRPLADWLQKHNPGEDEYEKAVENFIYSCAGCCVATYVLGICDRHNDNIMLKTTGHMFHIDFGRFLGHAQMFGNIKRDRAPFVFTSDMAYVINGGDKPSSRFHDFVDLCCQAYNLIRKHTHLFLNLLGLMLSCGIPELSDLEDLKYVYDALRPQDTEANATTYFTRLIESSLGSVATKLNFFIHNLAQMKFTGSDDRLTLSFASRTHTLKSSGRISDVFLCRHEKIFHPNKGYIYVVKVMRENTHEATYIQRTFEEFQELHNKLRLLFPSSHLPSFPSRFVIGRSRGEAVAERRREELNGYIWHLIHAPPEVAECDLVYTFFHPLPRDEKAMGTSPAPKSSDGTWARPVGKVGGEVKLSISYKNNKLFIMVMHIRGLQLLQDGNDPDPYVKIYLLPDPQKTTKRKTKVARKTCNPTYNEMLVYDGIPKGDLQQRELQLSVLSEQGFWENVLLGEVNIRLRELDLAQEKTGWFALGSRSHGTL

MCF7 cells [5] = experiment: ROS-Glo H2O2 assay; type: cell-based, human; details: MCF7, 24 h, ½ IC50 and IC50
Protocol: To determine whether MMV652103 induced oxidative stress in breast cancer cells, the levels of H2O2 were measured using the ROS-Glo™ H2O2 assay kit (G8820, Promega, Wisconsin, USA), according to the manufacturer's instructions. Briefly, cells (2500-4500 cells per well) were seeded in opaque 96 well plates. Cells were treated for 24 h with either vehicle or MMV652103 in a volume of 80 μl per well. After 18 h of incubation, 20 μl H2O2 Substrate Solution was added to each well. After 24 h of incubation 100 μl ROS-Glo™ Detection Solution (prepared by mixing 10 ml Luciferin Detection Reagent, 100 μl D-Cysteine and 100 μl Signal Enhancer Solution) was added to each well and incubated at RT for 20 min. After incubation, the luminescence was read using the GloMax® Explorer Multimode plate reader (Promega, Wisconsin, USA).

CS(=O)(=O)c1ccc(-c2cnc3ccc(-c4cccc(S(C)(=O)=O)c4)nn23)cc1 [MMV652103]
T47D cell migration (T47D cells [1]): significant reduction | number of T47D cell colonies (T47D cells [2]): dose-dependent reduction | effect on MCF7 cell cycle progression (MCF7 cells [3]): induced sub-G1 peaks and arrested cells in G1 | death ratio of chick embryos (chick embryos): did not result in an abnormal death ratio | macroscopic abnormalities of chick embryos (chick embryos; results not shown): nor did it lead to any macroscopic abnormalities | remaining activity at 10 µM (PIK3CB/ PIK3R1): 19% | remaining activity at 10 µM (PIK3C2A): 39% | IC50 ([4]; Fig 2C summary, MTT 48 h, read-out: IC50 ± SEM FG0): > 10 µM | IC50 ([4]; MTT, 48 h, exact IC50 not reached, predicted, read-out: IC50 FG0): > 10 µM | remaining activity at 10 µM (PIK3CG): 2% | remaining activity at 10 µM (PIK3C2B): 31% | levels of H2O2 (MCF7 cells [5]): significant increase
